Experiment [1] addresses T1, PDI-M (PtPDI-M) (Populus trichocarpa, UniProt B9IAL5).
T1 construct: gene POPTR_014G160000; pET-15b, His-tagged; E. coli BL21(DE3) pSBET; a°-a-b organisation
T1 sequence (B9IAL5 25-434): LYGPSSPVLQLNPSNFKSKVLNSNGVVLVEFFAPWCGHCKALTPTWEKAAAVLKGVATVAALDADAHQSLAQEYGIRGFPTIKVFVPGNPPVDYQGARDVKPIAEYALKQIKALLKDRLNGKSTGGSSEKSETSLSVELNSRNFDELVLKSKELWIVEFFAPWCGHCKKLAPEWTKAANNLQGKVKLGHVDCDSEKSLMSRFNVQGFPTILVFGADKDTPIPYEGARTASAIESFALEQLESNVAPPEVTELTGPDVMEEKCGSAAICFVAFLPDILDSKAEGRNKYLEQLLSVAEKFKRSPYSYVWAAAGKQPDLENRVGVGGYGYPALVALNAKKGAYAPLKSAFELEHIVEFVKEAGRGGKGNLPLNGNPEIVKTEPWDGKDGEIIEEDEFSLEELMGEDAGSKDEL
The experiment can be described thus: NADPH/AtNTRB-coupled DTNB reduction, absorbance at […] nm. Format: biochemical. The following applies: 200 μM NADPH, 2 μM AtNTRB, 100 μM DTNB, 0.2 μM PDI, pH 8.0, 25°C.

Experiment [2] deals with T2, PDI-A (PtPDI-A) (Populus trichocarpa, UniProt B9HQP9).
T2 construct: gene POPTR_009G004500; pET-15b, His-tagged; E. coli BL21(DE3) pSBET; purified anaerobically; ca 15 kDa; dimeric and probable octameric forms; WCKHC active site
T2 sequence (B9HQP9 27-147): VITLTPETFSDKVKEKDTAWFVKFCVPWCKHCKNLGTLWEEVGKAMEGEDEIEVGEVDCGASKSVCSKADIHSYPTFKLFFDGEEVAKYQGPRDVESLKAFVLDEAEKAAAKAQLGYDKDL
Put plainly: UV-visible absorption, iron and sulfide quantification, size-exclusion chromatography. It is filed as binding. The note with it: as isolated after E. coli expression, anaerobic purification; pH 8.0; cluster proposed to bridge a dimer; cluster type not definitively assigned. For orientation: In gel filtration, larger molecules generally elute earlier.

Consider `O=C(O)c1cc(SSc2ccc([N+](=O)[O-])c(C(=O)O)c2)ccc1[N+](=O)[O-]` [DTNB], for which, in experiment [1], the DTNB reduction activity entry was “PDI-L1a was more efficient than PDI-M and PDI-A was inactive (Fig 2C)”.
For `[S]1[Fe][S][Fe]1` [[Fe2S2] cluster], the “UV-visible absorption, iron and sulfide quantification, size-exclusion chromatog” value in experiment [2] was “results could be consistent with PDI-A binding a [Fe2S2] cluster into a dimer”.

(Values after paper PMC5375154, “Atypical protein disulfide isomerases (PDI): Comparison of the molecular and catalytic properties of poplar PDI-A and PDI-M with PDI-L1A” (PLoS ONE, 2017).)
